Test results published in patent publication US20260216116A1, “QUATERNARY AMMONIUM COMPOUNDS (QACS) AND PROCESS FOR PREPARATION THEREOF” (priority 2023, published 2026).

Experiment: Dissociation of 1 carboxy N—N—N trimethylmethanaminium benzoate in buffer solutions
Type: physicochemical
Method: Sample Preparation: 750 mg sample was dissolved in 250 mL of respective buffer solution and kept in orbital shaker at 37° C. for 30 minutes, 1 hour and 2 hours in separate flask. […]

[1] = pH 1.2 (0.1N HCl), 1 Hours, 37° C.
[2] = pH 1.2 (0.1N HCl), 2 Hours, 37° C.
[3] = pH 1.2 (0.1N HCl), 30 Minutes, 37° C.
[4] = pH 1.2 (0.1N HCl), Initial, 750 mg in 250 mL, 37° C.
[5] = pH 6.8 (Phosphate Buffer), 1 Hours, 37° C.
[6] = pH 6.8 (Phosphate Buffer), 2 Hours, 37° C.
[7] = pH 6.8 (Phosphate Buffer), 30 Minutes, 37° C.
[8] = pH 6.8 (Phosphate Buffer), Initial
[9] = pH 6.8 (Phosphate Buffer), Initial, 750 mg in 250 mL, 37° C.

Dissociation (1.2 pH): completely dissociated
Dissociation (6.8 pH): completely dissociated
Concentration in %: 1 carboxy N-N-N trimethylmethanaminium, % (Control): 70%
Concentration in %: Benzoic acid, % (Control): 36%
%, Dissociation of 1 carboxy N-N-N trimethylmethanaminium [1]: 100%
%, Dissociation of Benzoic acid [1]: 115%
Concentration in %: 1 carboxy N-N-N trimethylmethanaminium, % [1]: 69%
Concentration in %: Benzoic acid, % [1]: 41%
%, Dissociation of 1 carboxy N-N-N trimethylmethanaminium [2]: 100%
%, Dissociation of Benzoic acid [2]: 114%
Concentration in %: 1 carboxy N-N-N trimethylmethanaminium, % [2]: 70%
Concentration in %: Benzoic acid, % [2]: 41%
%, Dissociation of 1 carboxy N-N-N trimethylmethanaminium [3]: 98%
%, Dissociation of Benzoic acid [3]: 115%
Concentration in %: 1 carboxy N-N-N trimethylmethanaminium, % [3]: 68%
Concentration in %: Benzoic acid, % [3]: 41%
%, Dissociation of 1 carboxy N-N-N trimethylmethanaminium (pH 1.2 (0.1N HCl), Initial): 97%
%, Dissociation of Benzoic acid (pH 1.2 (0.1N HCl), Initial): 94%
Concentration in %: 1 carboxy N-N-N trimethylmethanaminium, % [4]: 67%
Concentration in %: Benzoic acid, % [4]: 34%
%, Dissociation of 1 carboxy N-N-N trimethylmethanaminium [5]: 97%
%, Dissociation of Benzoic acid [5]: 109%
Concentration in %: 1 carboxy N-N-N trimethylmethanaminium, % [5]: 70%
Concentration in %: Benzoic acid, % [5]: 40%
%, Dissociation of 1 carboxy N-N-N trimethylmethanaminium [6]: 99%
%, Dissociation of Benzoic acid [6]: 108%
Concentration in %: 1 carboxy N-N-N trimethylmethanaminium, % [6]: 71%
Concentration in %: Benzoic acid, % [6]: 40%
%, Dissociation of 1 carboxy N-N-N trimethylmethanaminium [7]: 98%
%, Dissociation of Benzoic acid [7]: 109%
Concentration in %: 1 carboxy N-N-N trimethylmethanaminium, % [7]: 71%
Concentration in %: Benzoic acid, % [7]: 40%
%, Dissociation of 1 carboxy N-N-N trimethylmethanaminium [8]: 96%
%, Dissociation of Benzoic acid [8]: 97%
Concentration in %: 1 carboxy N-N-N trimethylmethanaminium, % [9]: 69%
Concentration in %: Benzoic acid, % [9]: 36%
SMILES: C[N+](C)(C)CC(=O)O.O=C([O-])c1ccccc1 [1-carboxy-N—N—N-trimethylmethanaminium benzoate]
